Measurements from patent US20250269072A1, “PROCESSES FOR PREPARING RADIOLABELLED CONJUGATES” (CENTENARY INSTITUTE OF CANCER MEDICINE AND CELL BIOLOGY, priority 2021, published 2025).
Where “and” joins values, the source holds several entries; their conditions need not be identical. Equal entries are not always repeated.

Test: Human studies: radiation dosimetry of subjects 1-4 (Olinda/EXM)
Format: in vivo
Details: subjects 1-4 = the 7th table-the 10th table
Description: For subjects 1-4, radiation dosimetry was calculated using Olinda/EXM based on the organ biodistribution discussed above.
Tables 7-10 show the estimate for radiation dosimetry for subjects 1˜4 of 200 MBq of ^68Ga NODAGA GSAO for individual organs and for the whole body in mSv/MBq (EDE cont.=effective dose equivalent contribution, ED Cont.=effective dose contribution). The estimated whole-body dose from the one (1) low dose CT and two (2) ultra-low dose CTs was 9.2 mSv.

Structure (SMILES): O=C(O)CNC(=O)[C@H](CSCC(=O)Nc1ccc([As](O)O)cc1)NC(=O)CC[C@H](NC(=O)CCC1C(=O)[O][68Ga]2[O]C(=O)CN3CCN(CCN1CC3)CC(=O)[O]2)C(=O)O (stereo partly shown) [^68Ga-NODAGA-GSAO]
- Alpha dose (Adrenals): 0.00E+00 mSv/MBq
- ED Cont. (Adrenals): 7.09E−05 mSv/MBq and 7.38E−05 mSv/MBq and 4.84E−05 mSv/MBq and 8.93E−05 mSv/MBq
- Photon dose (Adrenals): 4.52E−03 mSv/MBq and 5.24E−03 mSv/MBq and 3.71E−03 mSv/MBq and 4.86E−03 mSv/MBq
- Total dose (Adrenals): 1.42E−02 mSv/MBq and 1.48E−02 mSv/MBq and 9.68E−03 mSv/MBq and 1.79E−02 mSv/MBq
- Alpha dose (Brain): 0.00E+00 mSv/MBq
- Beta dose (Brain): 6.82E−04 mSv/MBq and 6.40E−04 mSv/MBq and 6.13E−04 mSv/MBq and 7.79E−04 mSv/MBq
- ED Cont. (Brain): 9.10E−06 mSv/MBq and 1.05E−05 mSv/MBq and 7.39E−06 mSv/MBq and 1.00E−05 mSv/MBq
- EDE Cont. (Brain): 0.00E+00 mSv/MBq
- Photon dose (Brain): 1.14E−03 mSv/MBq and 1.46E−03 mSv/MBq and 8.65E−04 mSv/MBq and 1.23E−03 mSv/MBq
- Total dose (Brain): 1.82E−03 mSv/MBq and 2.10E−03 mSv/MBq and 1.48E−03 mSv/MBq and 2.01E−03 mSv/MBq
- Alpha dose (Breasts): 0.00E+00 mSv/MBq
- Photon dose (Breasts): 2.11E−03 mSv/MBq and 2.76E−03 mSv/MBq and 1.59E−03 mSv/MBq and 2.25E−03 mSv/MBq
- Alpha dose (Gallbladder Wall): 0.00E+00 mSv/MBq
- ED Cont. (Gallbladder Wall): 0.00E+00 mSv/MBq
- EDE Cont. (Gallbladder Wall): 0.00E+00 mSv/MBq
- Photon dose (Gallbladder Wall): 4.59E−03 mSv/MBq and 5.27E−03 mSv/MBq and 4.07E−03 mSv/MBq and 4.46E−03 mSv/MBq
- Total dose (Gallbladder Wall): 8.07E−03 mSv/MBq and 9.96E−03 mSv/MBq and 6.09E−03 mSv/MBq and 8.56E−03 mSv/MBq
- Alpha dose (Heart Wall): 0.00E+00 mSv/MBq
- Beta dose (Heart Wall): 6.65E−03 mSv/MBq and 8.27E−03 mSv/MBq and 4.65E−03 mSv/MBq and 7.57E−03 mSv/MBq
- ED Cont. (Heart Wall): 0.00E+00 mSv/MBq
- EDE Cont. (Heart Wall): 0.00E+00 mSv/MBq
- Photon dose (Heart Wall): 3.57E−03 mSv/MBq and 4.29E−03 mSv/MBq and 2.82E−03 mSv/MBq and 3.84E−03 mSv/MBq
- Total dose (Heart Wall): 1.02E−02 mSv/MBq and 1.26E−02 mSv/MBq and 7.48E−03 mSv/MBq and 1.14E−02 mSv/MBq
- Alpha dose (Kidneys): 0.00E+00 mSv/MBq
- Beta dose (Kidneys): 4.32E−02 mSv/MBq and 4.21E−02 mSv/MBq and 4.45E−02 mSv/MBq and 4.30E−02 mSv/MBq
- ED Cont. (Kidneys): 2.52E−04 mSv/MBq and 2.48E−04 mSv/MBq and 2.57E−04 mSv/MBq
- EDE Cont. (Kidneys): 3.03E−03 mSv/MBq and 2.98E−03 mSv/MBq and 3.08E−03 mSv/MBq and 3.02E−03 mSv/MBq
- Photon dose (Kidneys): 7.22E−03 mSv/MBq and 7.59E−03 mSv/MBq and 6.83E−03 mSv/MBq and 7.33E−03 mSv/MBq
- Total dose (Kidneys): 5.04E−02 mSv/MBq and 4.97E−02 mSv/MBq and 5.13E−02 mSv/MBq and 5.03E−02 mSv/MBq
- Alpha dose (LLI Wall): 0.00E+00 mSv/MBq
- ED Cont. (LLI Wall): 2.43E−03 mSv/MBq and 2.50E−03 mSv/MBq and 2.44E−03 mSv/MBq and 1.48E−03 mSv/MBq
- Photon dose (LLI Wall): 7.31E−03 mSv/MBq and 7.16E−03 mSv/MBq and 5.96E−03 mSv/MBq and 8.79E−03 mSv/MBq
- Total dose (LLI Wall): 2.02E−02 mSv/MBq and 2.08E−02 mSv/MBq and 2.03E−02 mSv/MBq and 1.23E−02 mSv/MBq
- Alpha dose (Liver): 0.00E+00 mSv/MBq
- Beta dose (Liver): 1.27E−02 mSv/MBq and 1.45E−02 mSv/MBq and 1.20E−02 mSv/MBq and 1.16E−02 mSv/MBq
- ED Cont. (Liver): 8.78E−04 mSv/MBq and 1.00E−03 mSv/MBq and 8.20E−04 mSv/MBq and 8.13E−04 mSv/MBq
- Photon dose (Liver): 4.84E−03 mSv/MBq and 5.51E−03 mSv/MBq and 4.36E−03 mSv/MBq and 4.71E−03 mSv/MBq
- Total dose (Liver): 1.76E−02 mSv/MBq and 2.00E−02 mSv/MBq and 1.64E−02 mSv/MBq and 1.63E−02 mSv/MBq
- Alpha dose (Lungs): 0.00E+00 mSv/MBq
- Beta dose (Lungs): 5.19E−03 mSv/MBq and 5.73E−03 mSv/MBq and 5.16E−03 mSv/MBq and 4.82E−03 mSv/MBq
- ED Cont. (Lungs): 9.74E−04 mSv/MBq and 1.11E−03 mSv/MBq and 9.04E−04 mSv/MBq and 9.57E−04 mSv/MBq
- EDE Cont. (Lungs): 9.74E−04 mSv/MBq and 1.11E−03 mSv/MBq and 9.04E−04 mSv/MBq and 9.57E−04 mSv/MBq
- Photon dose (Lungs): 2.93E−03 mSv/MBq and 3.54E−03 mSv/MBq and 2.37E−03 mSv/MBq and 3.15E−03 mSv/MBq
- Total dose (Lungs): 8.12E−03 mSv/MBq and 9.27E−03 mSv/MBq and 7.53E−03 mSv/MBq and 7.97E−03 mSv/MBq
- Alpha dose (Muscle): 0.00E+00 mSv/MBq
- Beta dose (Muscle): 6.19E−03 mSv/MBq and 6.08E−03 mSv/MBq and 5.15E−03 mSv/MBq and 7.68E−03 mSv/MBq
- ED Cont. (Muscle): 4.85E−05 mSv/MBq and 4.95E−05 mSv/MBq and 3.99E−05 mSv/MBq and 5.88E−05 mSv/MBq
- EDE Cont. (Muscle): 0.00E+00 mSv/MBq
- Photon dose (Muscle): 3.51E−03 mSv/MBq and 3.83E−03 mSv/MBq and 2.83E−03 mSv/MBq and 4.07E−03 mSv/MBq
- Total dose (Muscle): 9.71E−03 mSv/MBq and 9.91E−03 mSv/MBq and 7.98E−03 mSv/MBq and 1.18E−02 mSv/MBq
- Alpha dose (Osteogenic Cells): 0.00E+00 mSv/MBq
- Photon dose (Osteogenic Cells): 3.47E−03 mSv/MBq and 4.14E−03 mSv/MBq and 2.74E−03 mSv/MBq and 3.80E−03 mSv/MBq
- Alpha dose (Ovaries): 0.00E+00 mSv/MBq
- Photon dose (Ovaries): 7.00E−03 mSv/MBq and 6.95E−03 mSv/MBq and 5.52E−03 mSv/MBq and 8.79E−03 mSv/MBq
- Total dose (Ovaries): 1.01E−02 mSv/MBq and 1.16E−02 mSv/MBq and 7.54E−03 mSv/MBq and 1.23E−02 mSv/MBq
- Alpha dose (Pancreas): 0.00E+00 mSv/MBq
- Beta dose (Pancreas): 1.20E−02 mSv/MBq and 1.62E−02 mSv/MBq and 1.13E−02 mSv/MBq and 1.18E−02 mSv/MBq
- ED Cont. (Pancreas): 8.46E−05 mSv/MBq and 1.10E−04 mSv/MBq and 7.72E−05 mSv/MBq and 8.44E−05 mSv/MBq
- EDE Cont. (Pancreas): 8.14E−04 mSv/MBq and 1.32E−03 mSv/MBq and 9.27E−04 mSv/MBq and 1.01E−03 mSv/MBq
- Photon dose (Pancreas): 4.90E−03 mSv/MBq and 5.90E−03 mSv/MBq and 4.18E−03 mSv/MBq and 5.04E−03 mSv/MBq
- Total dose (Pancreas): 1.69E−02 mSv/MBq and 2.21E−02 mSv/MBq and 1.54E−02 mSv/MBq
- Alpha dose (Red Marrow): 0.00E+00 mSv/MBq
- Beta dose (Red Marrow): 5.39E−03 mSv/MBq and 6.61E−03 mSv/MBq and 4.29E−03 mSv/MBq and 5.25E−03 mSv/MBq
- ED Cont. (Red Marrow): 1.09E−03 mSv/MBq and 1.30E−03 mSv/MBq and 8.70E−04 mSv/MBq and 1.13E−03 mSv/MBq
